Test results reported in patent US6743809B2, “Indole Derivatives useful for the treatment of CNS disorders” (H. Lundbeck A/S, priority 2000, dated 2004).

How the values were obtained:
[1] = target: T1, human cloned dopamine D4.2 receptors (Homo sapiens, UniProt P21917, DEL265-296); test: Inhibition of the binding of [3H]YM-09151-2 to human dopamine D4 receptors; conditions: 50 nM compound; [3H]YM-09151-2 0.06 nM; membranes of CHO-cells
T1 construct: expressed in transfected cells; host or cells: CHO cells
T1 sequence (P21917 with tags, fused parts or gaps DEL265-296): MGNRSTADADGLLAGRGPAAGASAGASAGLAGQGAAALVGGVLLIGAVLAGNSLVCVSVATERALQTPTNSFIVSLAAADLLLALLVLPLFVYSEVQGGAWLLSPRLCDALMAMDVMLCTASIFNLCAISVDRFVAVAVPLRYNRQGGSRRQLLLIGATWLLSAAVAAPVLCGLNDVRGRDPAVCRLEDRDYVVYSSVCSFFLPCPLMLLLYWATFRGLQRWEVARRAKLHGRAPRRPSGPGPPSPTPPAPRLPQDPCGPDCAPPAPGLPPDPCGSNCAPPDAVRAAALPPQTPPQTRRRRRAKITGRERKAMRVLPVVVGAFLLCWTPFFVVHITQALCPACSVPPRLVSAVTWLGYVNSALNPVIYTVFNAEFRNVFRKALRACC
Method: Inhibition of the Binding of [^3H]YM-09151-2 to Human Dopamine D4 Receptors
By this method, the inhibition by drugs of the binding of [^3H]YM-09151-2 (0.06 nM) to membranes of human cloned dopamine D4.2 receptors expressed in CHO-cells is determined in vitro. The method is modified from NEN Life Science Products, Inc., technical data certificate PC2533-10/96.

[2] = target: T2, D4 receptor (Homo sapiens, UniProt P21917); conditions: literature report, result in words; cited from earlier work
T2 sequence (P21917 1-419): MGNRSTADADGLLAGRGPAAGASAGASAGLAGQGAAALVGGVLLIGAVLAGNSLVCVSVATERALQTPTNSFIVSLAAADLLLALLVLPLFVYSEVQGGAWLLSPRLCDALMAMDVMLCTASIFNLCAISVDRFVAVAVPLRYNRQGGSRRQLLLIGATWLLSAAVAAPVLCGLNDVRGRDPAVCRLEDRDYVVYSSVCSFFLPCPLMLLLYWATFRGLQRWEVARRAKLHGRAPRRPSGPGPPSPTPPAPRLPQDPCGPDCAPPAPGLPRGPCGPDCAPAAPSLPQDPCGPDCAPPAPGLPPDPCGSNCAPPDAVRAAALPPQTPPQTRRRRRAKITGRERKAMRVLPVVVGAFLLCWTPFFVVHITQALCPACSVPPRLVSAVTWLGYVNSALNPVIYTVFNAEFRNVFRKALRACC

Structure (SMILES)	inhibition at 0.05 µM [1] [%]	functional activity at D4 receptor [2]
COc1ccc(C(=O)Nc2ccc(C)c(CCN3CCC(c4c[nH]c5c(Cl)cccc45)CC3)c2)cc1 [Compound 4f, 3-(1-{2-[5-(4-Methoxybenzoylamino)-2-methylphenyl]ethyl}piperidin-4-yl)-7-chloro-1H-indole]	48	–
Cc1ccc(NC(=O)c2ccncc2)cc1CCN1CCC(c2c[nH]c3c(Cl)cccc23)CC1 [Compound 4h, 3-[1-(2-{2-Methyl-5-[(pyridin-4-ylmethanoyl)amino]phenyl}ethyl)piperidin-4-yl]-7-chloro-1H-indole]	73	–
Cc1ccc(NC(=O)c2cccs2)cc1CCN1CCC(c2c[nH]c3c(Cl)cccc23)CC1 [Compound 4i, 3-[1-(2-{2-Methyl-5-[(thiophen-2-ylmethanoyl)amino]phenyl}ethyl)piperidin-4-yl]-7-chloro-1H-indole]	85	–
Cc1ccc(NC(=O)c2ccsc2)cc1CCN1CCC(c2c[nH]c3c(Cl)cccc23)CC1 [Compound 4j, 3-[1-(2-{2-Methyl-5-[(thiophen-3-ylmethanoyl)amino]phenyl}ethyl)piperidin-4-yl]-7-chloro-1H-indole]	48	–
Cc1ccc(NC(=O)c2cnns2)cc1CCN1CCC(c2c[nH]c3c(Cl)cccc23)CC1 [Compound 4k, 3-[1-(2-{2-Methyl-5-[(1-[1,2,3]thiadiazol-5-ylmethanoyl)amino]phenyl}ethyl)piperidin-4-yl]-7-chloro-1H-indole]	67	–
CC(C)Oc1cccnc1N(C)C1CCN(Cc2ccccc2)CC1 [Compound U-101958]	–	partial D4 receptor agonists
